Laboratory results: US20250214991A1 (Oncopia Therapeutics, Inc. d/b/a/ SK Life Science Labs, priority 2022, published 2025)

Experiments:
IKZF1 = IKZF1 (Homo sapiens (Human), UniProt Q13422+Q96SW2); test: In vitro IKZF1 HiBit Assay (HEK293T Flp-in-HiBiT-IKZF1 stable cell line); assay type: cell-based; details: HEK293T Flp-in-HiBiT-IKZF1 stable cell line, 6 hrs incubation; for DC50: read-out: IKZF1 HiBit DC50; for Dmax: HEK-293T, read-out: IKZF1 HiBit Dmax (%)
Description: In Vitro IKZF1 HiBit Assay
The HiBiT protein tagging system was applied to modified Cells: modified HEK293T Flp-in-HiBiT-IKZF1 stable cell line (polyclone) via a CRISPR/Cas9-mediated insertion of the HiBiT peptide tag (Promega™) to the N-terminus of the […] gene locus (Neon™ transfection system).
25 nL of diluted compound is transferred to assay plates (Corning3571) using ECHO550, the final DMSO concentration @ 0.1%. The cells are seeded in 3000/25 μL/well to compound plates. The plates are incubated for 6 hrs in TC incubator. The amount of Nano-Glo® HiBiT lytic reagent needed to perform the desired experiments is calculated. The Nano-Glo® HiBiT lytic reagent is brought to room temperature. The LgBiT protein is diluted to 1:100 and the Nano-Glo® HiBiT lytic substrate is brought to 1:50 into an appropriate volume of room temperature Nano-Glo® HiBiT lytic buffer. 15 μL of the detection reagent (or without LgBiT) is dispensed to corresponding well according to the layout. The plate is shaked for 10 mins at room temperature. After briefly centrifuge, the plateis read on Envision. At the indicated timepoints, the Nano-Glo® HiBiT lytic detection system (Promega™) was utilized for detecting bioluminescence of the HiBiT tag in treated cells: abundance of the tag is proportionate to the level of luminescence. Following normalization to DMSO, dose-response curves were plotted (GraphPad Prism) to determine the concentration points at which 50% of HiBiT-Ikaros degradation was achieved by each compound. The extent of degradation (range of luminescence) from the highest to lowest concentration points was calculated to determine the Dmax.
(§1) DC50, A: <1 nM; B: 1-10 nM; C: 10-100 nM; D: 100-1000 nM; E: 1000-10000 nM; F: >10,000 nM. Dmax, A: >80%; B: 60-80%; C: 40-60%; D: 20-40%; E: <20%.

CRBN/DDB1 = CRBN/DDB1 (Homo sapiens (Human), UniProt Q96SW2); test: IC50 measurements for binding to CRBN/DDB1 (HTRF); details: His tagged CRBN+DDB, Cy5-labeled Thalidomide probe, one hour
Description: In vitro Assay: IC50 Measurements for binding to CRBN/DDB1 (Table E1)
The binding potency was determined using HTRF assay technology (Perkin Elmer). Compounds were serially diluted in DMSO and 0.2 μL volume was transferred to white 384-well plate. The reaction was conducted in total volume of 20 μL with addition of 2 nM His tagged CRBN+DDB−DLS7+CXU4 (Wuxi, catalogue #RP210521GA) to compounds followed by addition of 60 nM Fluorescent probe Cy5-labeled Thalidomide (Tenova Pharma, catalogue #T52461), and 0.4 nM of MAb Anti-6HIS Tb cryptate Gold (Cisbio, catalogue #61HI2TLA in the assay buffer (50 mM HEPES pH 7.5, 1 mM TCEP, 0.01% Brij-35, 50 mM NaCl, and 0.1% BSA). After one hour incubation at room temperature, the HTRF signals were read on Envision reader (Perkin Elemer). Data was analyzed using XLfit using four parameters dose response curve to determine IC50s. A: IC50<0.1 μM; B: 0.1 μM<IC50<[…]; C: 0.5 μM<IC50<1 μM; D: 1 μM<IC50<5 μM; E: 5 μM<IC50<10 μM

IKZF2 = IKZF2 (Homo sapiens (Human), UniProt Q96SW2+Q9UKS7); test: In vitro IKZF2 HiBit Assay (HEK293T Flp-in-HiBiT cells); assay type: cell-based; details: HEK293T Flp-in-HiBiT cells, 6 hrs incubation; for DC50: read-out: IKZF2 HiBit DC50; for Dmax: HEK-293T, read-out: IKZF2 HiBit Dmax (%)
Description: In Vitro IKZF2 HiBit Assay
The HiBiT protein tagging system was applied to modified HEK293T Flp-in-HiBiT cells (polyclone) via a CRISPR/Cas9-mediated insertion of the HiBiT peptide tag (Promega™) to the N-terminus of the IKZF2 gene locus (Neon™ transfection system). Test and reference compounds are diluted from 1 mM at 3 folds for 11 doses. 25 nL of diluted compound is transfered to assay plates (Corning3570) using ECHO550, the final DMSO concentration @ 0.1%. The cells are seeded in 3000/25 μL/well to compound plates. It is then incubated for 6 hrs in TC incubator. The amount of Nano-Glo® HiBiT lytic reagent needed to perform the desired experiments is calculated. The Nano-Glo® HiBiT lytic reagent is brought to room temperature. The LgBiT protein is diluted to 1:100 and the Nano-Glo® HiBiT lytic substrate is diluted to 1:50 into an appropriate volume of room temperature Nano-Glo® HiBiT lytic buffer. 15 μL of the detection reagent (or without LgBiT) is dispensed to corresponding well according to the layout. The plate is then shaked for 10 mins at room temperature. After briefly centrifuge, the plate is read on Envision. At the indicated timepoints, the Nano-Glo® HiBiT lytic detection system (Promega™) was utilized for detecting bioluminescence of the HiBiT tag in treated cells: abundance of the tag is proportionate to the level of luminescence. Following normalization to DMSO, dose-response curves were plotted (GraphPad Prism) to determine the concentration points at which 50% of HiBiT-Helios degradation was achieved by each compound. The extent of degradation (range of luminescence) from the highest to lowest concentration points was calculated to determine the Dmax.
as §1

Sequence of IKZF1 (Q13422 whole entry): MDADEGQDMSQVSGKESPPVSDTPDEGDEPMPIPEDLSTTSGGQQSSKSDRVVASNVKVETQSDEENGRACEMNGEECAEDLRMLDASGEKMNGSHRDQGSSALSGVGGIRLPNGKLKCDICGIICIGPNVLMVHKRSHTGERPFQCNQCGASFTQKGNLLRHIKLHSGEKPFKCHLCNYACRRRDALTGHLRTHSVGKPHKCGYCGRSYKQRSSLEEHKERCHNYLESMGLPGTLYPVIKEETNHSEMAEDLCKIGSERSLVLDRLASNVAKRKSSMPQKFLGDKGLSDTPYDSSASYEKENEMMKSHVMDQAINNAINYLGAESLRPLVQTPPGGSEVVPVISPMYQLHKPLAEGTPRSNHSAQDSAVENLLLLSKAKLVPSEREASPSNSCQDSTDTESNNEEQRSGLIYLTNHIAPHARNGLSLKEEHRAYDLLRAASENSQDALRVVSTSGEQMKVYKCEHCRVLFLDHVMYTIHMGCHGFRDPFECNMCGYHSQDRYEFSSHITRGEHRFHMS
Sequence of IKZF1 (Q96SW2 whole entry): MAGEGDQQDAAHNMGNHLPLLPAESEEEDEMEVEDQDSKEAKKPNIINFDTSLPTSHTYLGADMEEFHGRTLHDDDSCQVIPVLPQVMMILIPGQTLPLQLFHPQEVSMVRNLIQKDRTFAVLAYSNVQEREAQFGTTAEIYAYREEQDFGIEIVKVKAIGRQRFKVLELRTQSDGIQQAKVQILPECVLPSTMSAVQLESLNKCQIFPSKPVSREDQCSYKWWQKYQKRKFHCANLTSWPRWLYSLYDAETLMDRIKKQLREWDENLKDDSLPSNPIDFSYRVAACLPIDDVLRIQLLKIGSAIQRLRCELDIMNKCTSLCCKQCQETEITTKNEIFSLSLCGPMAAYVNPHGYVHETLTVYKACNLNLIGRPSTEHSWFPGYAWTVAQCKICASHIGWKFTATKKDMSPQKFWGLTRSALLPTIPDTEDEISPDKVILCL
Sequence of IKZF1 (Q16531 2-1140 partner): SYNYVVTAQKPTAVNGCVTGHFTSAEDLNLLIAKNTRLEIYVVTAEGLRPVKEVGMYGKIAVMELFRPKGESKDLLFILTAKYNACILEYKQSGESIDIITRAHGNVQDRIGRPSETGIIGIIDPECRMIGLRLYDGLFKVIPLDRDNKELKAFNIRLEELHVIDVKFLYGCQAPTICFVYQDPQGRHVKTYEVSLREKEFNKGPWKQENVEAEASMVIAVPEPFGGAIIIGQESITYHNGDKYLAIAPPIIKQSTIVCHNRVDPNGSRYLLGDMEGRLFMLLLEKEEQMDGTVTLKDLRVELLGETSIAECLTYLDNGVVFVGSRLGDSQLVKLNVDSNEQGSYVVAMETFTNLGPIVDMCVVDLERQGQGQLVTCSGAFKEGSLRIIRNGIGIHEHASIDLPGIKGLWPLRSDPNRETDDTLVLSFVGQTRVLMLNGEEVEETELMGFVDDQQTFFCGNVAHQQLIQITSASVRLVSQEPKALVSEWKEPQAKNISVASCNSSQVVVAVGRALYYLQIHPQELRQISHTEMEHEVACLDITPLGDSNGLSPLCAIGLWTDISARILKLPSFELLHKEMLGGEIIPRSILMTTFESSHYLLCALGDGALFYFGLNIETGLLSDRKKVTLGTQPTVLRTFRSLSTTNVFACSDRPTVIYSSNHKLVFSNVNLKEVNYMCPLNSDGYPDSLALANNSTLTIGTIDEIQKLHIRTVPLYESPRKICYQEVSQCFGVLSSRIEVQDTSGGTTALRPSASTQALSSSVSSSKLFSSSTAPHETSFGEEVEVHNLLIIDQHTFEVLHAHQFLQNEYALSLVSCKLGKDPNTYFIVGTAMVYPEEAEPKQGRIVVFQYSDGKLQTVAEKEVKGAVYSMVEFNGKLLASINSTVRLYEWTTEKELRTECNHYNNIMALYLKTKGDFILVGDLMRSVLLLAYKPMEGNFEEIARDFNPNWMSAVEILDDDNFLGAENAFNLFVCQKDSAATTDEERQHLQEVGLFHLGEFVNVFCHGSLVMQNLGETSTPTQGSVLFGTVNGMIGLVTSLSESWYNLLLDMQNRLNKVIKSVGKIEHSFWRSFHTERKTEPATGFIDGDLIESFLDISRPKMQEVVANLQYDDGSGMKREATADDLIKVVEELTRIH
Sequence of CRBN/DDB1 (Q96SW2 whole entry, species assumed): as the sequence (Q96SW2 whole entry) above
Sequence of CRBN/DDB1 (Q16531 whole entry partner, species assumed): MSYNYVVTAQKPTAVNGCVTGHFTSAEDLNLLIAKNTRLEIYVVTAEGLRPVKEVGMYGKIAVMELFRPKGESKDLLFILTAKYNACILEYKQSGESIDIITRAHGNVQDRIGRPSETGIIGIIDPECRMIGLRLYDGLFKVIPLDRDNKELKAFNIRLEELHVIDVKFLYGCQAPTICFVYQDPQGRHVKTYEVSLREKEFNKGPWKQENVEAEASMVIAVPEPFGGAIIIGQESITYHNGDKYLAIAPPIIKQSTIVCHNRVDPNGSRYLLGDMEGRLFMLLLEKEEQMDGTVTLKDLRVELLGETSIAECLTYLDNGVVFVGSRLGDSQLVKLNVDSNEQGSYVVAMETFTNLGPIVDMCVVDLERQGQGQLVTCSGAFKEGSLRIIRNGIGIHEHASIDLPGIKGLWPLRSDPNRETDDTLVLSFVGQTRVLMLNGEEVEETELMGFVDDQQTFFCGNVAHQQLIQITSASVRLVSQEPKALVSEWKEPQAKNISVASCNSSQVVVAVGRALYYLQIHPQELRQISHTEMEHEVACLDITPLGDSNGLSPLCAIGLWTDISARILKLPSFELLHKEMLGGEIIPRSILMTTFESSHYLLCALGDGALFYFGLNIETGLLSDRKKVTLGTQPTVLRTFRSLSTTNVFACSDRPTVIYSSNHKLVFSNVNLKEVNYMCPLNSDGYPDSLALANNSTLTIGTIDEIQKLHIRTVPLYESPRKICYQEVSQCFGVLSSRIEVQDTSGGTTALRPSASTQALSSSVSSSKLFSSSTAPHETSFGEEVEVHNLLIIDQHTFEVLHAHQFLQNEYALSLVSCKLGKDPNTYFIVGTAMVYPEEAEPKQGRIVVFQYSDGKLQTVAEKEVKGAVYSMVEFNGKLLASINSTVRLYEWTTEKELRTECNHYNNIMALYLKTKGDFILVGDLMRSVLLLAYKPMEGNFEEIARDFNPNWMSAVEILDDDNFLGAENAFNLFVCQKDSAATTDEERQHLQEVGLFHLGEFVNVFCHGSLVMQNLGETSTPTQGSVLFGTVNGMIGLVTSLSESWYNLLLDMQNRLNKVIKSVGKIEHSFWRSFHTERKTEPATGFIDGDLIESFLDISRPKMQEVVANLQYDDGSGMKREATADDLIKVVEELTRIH
Sequence of IKZF2 (Q9UKS7 whole entry): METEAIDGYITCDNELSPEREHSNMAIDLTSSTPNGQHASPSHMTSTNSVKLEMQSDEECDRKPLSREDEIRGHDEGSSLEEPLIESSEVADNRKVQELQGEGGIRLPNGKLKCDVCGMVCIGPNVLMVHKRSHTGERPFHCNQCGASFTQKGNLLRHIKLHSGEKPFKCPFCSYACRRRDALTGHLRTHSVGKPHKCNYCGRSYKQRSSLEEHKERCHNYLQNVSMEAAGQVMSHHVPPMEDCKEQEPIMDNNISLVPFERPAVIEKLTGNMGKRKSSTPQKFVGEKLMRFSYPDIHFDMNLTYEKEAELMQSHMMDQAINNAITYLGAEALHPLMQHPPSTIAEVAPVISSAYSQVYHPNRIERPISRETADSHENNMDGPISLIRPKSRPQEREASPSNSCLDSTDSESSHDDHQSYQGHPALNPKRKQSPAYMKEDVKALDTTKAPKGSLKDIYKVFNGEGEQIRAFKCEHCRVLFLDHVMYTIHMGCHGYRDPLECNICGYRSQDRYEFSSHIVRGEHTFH
Sequence of IKZF2 (Q96SW2 whole entry): as the sequence (Q96SW2 whole entry) above
Sequence of IKZF2 (Q16531 2-1140 partner): as the sequence (Q16531 2-1140 partner) above

SMILES	DC50 (IKZF1)	Dmax (IKZF1)	IC50 (CRBN/DDB1)	DC50 (IKZF2)	Dmax (IKZF2)
Cn1ccc2c(CN3CCS(=O)(=O)CC3)cc(-c3ccc4c(c3)CN(C3CCC(=O)NC3=O)C4=O)nc21 (stereo not shown) [Example 68, 3-(5-(4-((1,1-dioxidothiomorpholino)methyl)-1-methyl-1H-pyrrolo[2,3-b]pyridin-6-yl)-1-oxoisoindolin-2-yl) piperidine-2,6-dione]	> 10000 nM	< 20%	1000 to 5000 nM	100 to 1000 nM	20 to 40%
CCn1ccc2nc(-c3ccc4c(c3)CN(C3CCC(=O)NC3=O)C4=O)cc(CN3CCC3)c21 (stereo not shown) [Example 124, 3-(5-(7-(azetidin-1-ylmethyl)-1-ethyl-1H-pyrrolo[3,2-b]pyridin-5-yl)-1-oxoisoindolin-2-yl) piperidine-2,6-dione]	10 to 100 nM	20 to 40%	1000 to 5000 nM	1 to 10 nM	> 80%
Cn1ccc2c(O[C@@H]3CCNC3)cc(-c3ccc4c(c3)CN([C@H]3CCC(=O)NC3=O)C4=O)nc21 [Example 219, (S)-3-(5-(1-methyl-4-(((R)-pyrrolidin-3-yl)oxy)-1H-pyrrolo[2,3-b]pyridin-6-yl)-1-oxoisoindolin-2-yl) piperidine-2,6-dione]	100 to 1000 nM	20 to 40%	1000 to 5000 nM	10 to 100 nM	40 to 60%
COc1n[nH]c2c(CN3CCCC3)cc(-c3ccc4c(c3)CN(C3CCC(=O)NC3=O)C4=O)nc12 (stereo not shown) [Example 235, 3-(5-(3-methoxy-7-(pyrrolidin-1-ylmethyl)-1H-pyrazolo[4,3-b]pyridin-5-yl)-1-oxoisoindolin-2-yl) piperidine-2,6-dione]	100 to 1000 nM	20 to 40%	5000 to 10000 nM	1 to 10 nM	60 to 80%
COc1cc2c(cc1-c1cc(CN3CCCC3)cc3cncn13)CN(C1CCC(=O)NC1=O)C2=O (stereo not shown) [Example 30, 3-(6-methoxy-1-oxo-5-(7-(pyrrolidin-1-ylmethyl)imidazo[1,5-a]pyridin-5-yl)isoindolin-2-yl) piperidine-2,6-dione]	> 10000 nM	< 20%	1000 to 5000 nM	1000 to 10000 nM	< 20%
O=C1CCC(N2Cc3cc(-c4cc(CN5CCC(O)C5)c5cc[nH]c5n4)ccc3C2=O)C(=O)N1 (stereo not shown) [Example 120, 3-(5-(4-((3-hydroxypyrrolidin-1-yl)methyl)-1H-pyrrolo[2,3-b]pyridin-6-yl)-1-oxoisoindolin-2-yl) piperidine-2,6-dione]	100 to 1000 nM	20 to 40%	100 to 500 nM	10 to 100 nM	> 80%
CN1C2CCC1CN(Cc1cc(-c3ccc4c(c3)CN(C3CCC(=O)NC3=O)C4=O)nc3c1ccn3C)C2 (stereo not shown) [Example 311, 3-(5-(1-methyl-4-((8-methyl-3,8-diazabicyclo[3.2.1]octan-3-yl)methyl)-1H-pyrrolo[2,3-b]pyridin-6-yl)-1-oxoisoindolin-2-yl) piperidine-2,6-dione]	> 10000 nM	< 20%	500 to 1000 nM	1 to 10 nM	60 to 80%
CC(C)C1CCN(Cc2cc(-c3ccc4c(c3)CN(C3CCC(=O)NC3=O)C4=O)nc3[nH]ccc23)C1 (stereo not shown) [Example 146]	1 to 10 nM	40 to 60%	100 to 500 nM	1 to 10 nM	> 80%
CC(C)Cn1ccc2c(CN3CCCC3)cc(-c3ccc4c(c3)CN(C3CCC(=O)NC3=O)C4=O)nc21 (stereo not shown) [Example 140, 3-(5-(1-isobutyl-4-(pyrrolidin-1-ylmethyl)-1H-pyrrolo[2,3-b]pyridin-6-yl)-1-oxoisoindolin-2-yl) piperidine-2,6-dione]	> 10000 nM	< 20%	100 to 500 nM	< 1 nM	20 to 40%
O=C1CCC(N2Cc3cc(-c4cc(CN5CCCC5)cc5cncn45)cc(F)c3C2=O)C(=O)N1 (stereo not shown) [Example 28, 3-(7-fluoro-1-oxo-5-(7-(pyrrolidin-1-ylmethyl)imidazo[1,5-a]pyridin-5-yl)isoindolin-2-yl) piperidine-2,6-dione]			500 to 1000 nM		
COc1cc(-c2cc(CN3CCCC3)cc3cncn23)cc2c1C(=O)N(C1CCC(=O)NC1=O)C2 (stereo not shown) [Example 32, 3-(7-methoxy-1-oxo-5-(7-(pyrrolidin-1-ylmethyl)imidazo[1,5-a]pyridin-5-yl)isoindolin-2-yl) piperidine-2,6-dione]			100 to 500 nM		
O=C1CCC(N2Cc3cc(-c4cc(CN5CCCC5c5ccccc5)cc5nncn45)ccc3C2=O)C(=O)N1 (stereo not shown) [Example 50, 3-(1-oxo-5-(7-((2-phenylpyrrolidin-1-yl)methyl)-[1,2,4]triazolo[4,3-a]pyridin-5-yl)isoindolin-2-yl) piperidine-2,6-dione]			1000 to 5000 nM		
O=C1CCC(N2Cc3cc(-c4cc(CN5CCCC5)cc5cncn45)c(F)cc3C2=O)C(=O)N1 (stereo not shown) [Example 29, 3-(6-fluoro-1-oxo-5-(7-(pyrrolidin-1-ylmethyl)imidazo[1,5-a]pyridin-5-yl)isoindolin-2-yl) piperidine-2,6-dione]			1000 to 5000 nM		
Cn1cnc(-n2ccc3c(CN4CCCC4)cc(-c4ccc5c(c4)CN([C@H]4CCC(=O)NC4=O)C5=O)nc32)c1 [Example 263, (S)-3-(5-(1-(1-methyl-1H-imidazol-4-yl)-4-(pyrrolidin-1-ylmethyl)-1H-pyrrolo[2,3-b]pyridin-6-yl)-1-oxoisoindolin-2-yl) piperidine-2,6-dione]	> 10000 nM	< 20%		1 to 10 nM	40 to 60%
O=C1CCC(N2Cc3cc(-c4cc(CN5CCCC5)c5[nH]nc(C6CC6)c5n4)ccc3C2=O)C(=O)N1 (stereo not shown) [Example 202, 3-(5-(3-cyclopropyl-7-(pyrrolidin-1-ylmethyl)-1H-pyrazolo[4,3-b]pyridin-5-yl)-1-oxoisoindolin-2-yl) piperidine-2,6-dione]	1 to 10 nM	40 to 60%		1 to 10 nM	> 80%
CC(C)Nc1n[nH]c2c(CN3CCC(F)C3)cc(-c3ccc4c(c3F)CN(C3CCC(=O)NC3=O)C4=O)nc12 (stereo not shown) [Example 286]	> 10000 nM	< 20%		1 to 10 nM	60 to 80%
